Experimental data taken from ChEMBL document CHEMBL1201862, “PubChem BioAssay data set” (2004).
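Five concentrations, 48 hours, 96-well plates. The concentration for 50% growth inhibition is given as GI50.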 The source made the active and inactive calls. No stated cut-off is given here; in the data, active = GI50 up to about 1.1 µM and inactive = higher.

Tests used:
Assay in all cases: inhibition of tumour cell growth, NCI panel, 48 h
786-0 = test system: 786-0
HCC 2998 = test system: HCC 2998
SF-268 = test system: SF-268
K562 = test system: K562
HT-29 = test system: HT-29
SNB-75 = test system: SNB-75
UACC-62 = test system: UACC-62
SNB-19 = test system: SNB-19
SK-MEL-28 = test system: SK-MEL-28
UACC-257 = test system: UACC-257
U-251 = test system: U-251
MCF7 = test system: MCF7
M14 = test system: M14
HOP-62 = test system: HOP-62
SF-539 = test system: SF-539
SW-620 = test system: SW-620
ACHN = test system: ACHN
OVCAR-3 = test system: OVCAR-3
HL-60 = test system: HL-60
DLD-1 = test system: DLD-1

Measured: GI50

Clc1ccc(-c2noc(CN3CCCCC3)n2)cc1
inactive: 786-0 > 100 µM | HCC 2998 58.9 µM | SF-268 > 100 µM | K562 55.8 µM | HT-29 46.2 µM | SNB-75 > 100 µM | UACC-62 > 100 µM | SNB-19 > 100 µM | SK-MEL-28 > 100 µM | UACC-257 71 µM | U-251 > 100 µM | MCF7 > 100 µM | M14 > 100 µM | HOP-62 > 100 µM | SF-539 > 100 µM | SW-620 > 100 µM | ACHN > 100 µM | OVCAR-3 67.9 µM | HL-60 85.9 µM

c1ccc(-c2csc3ncn4cnnc4c23)cc1
inactive: 786-0 55.7 µM | HCC 2998 > 100 µM | K562 > 100 µM | HT-29 > 100 µM | SNB-75 22.3 µM | UACC-62 53.3 µM | SNB-19 > 100 µM | SK-MEL-28 > 100 µM | U-251 > 100 µM | M14 > 100 µM | SF-539 > 100 µM | SW-620 > 100 µM | ACHN 33.6 µM | OVCAR-3 > 100 µM | DLD-1 82.2 µM | HL-60 86.1 µM

CCOC(=O)C(NC(=O)CC)(Nc1ccc(S(=O)(=O)Nc2ccc(OC)nn2)cc1)C(F)(F)F (stereo not given)
inactive: 786-0 > 100 µM | HCC 2998 27.4 µM | SF-268 > 100 µM | K562 > 100 µM | HT-29 > 100 µM | SNB-75 > 100 µM | UACC-62 > 100 µM | SNB-19 > 100 µM | SK-MEL-28 > 100 µM | UACC-257 > 100 µM | U-251 > 100 µM | MCF7 > 100 µM | M14 > 100 µM | HOP-62 > 100 µM | SF-539 > 100 µM | SW-620 > 100 µM | ACHN > 100 µM | OVCAR-3 > 100 µM | HL-60 > 100 µM

CC(C)=CCc1cc(C2COc3cc4c(c(O)c3C2=O)C=CC(C)(C)O4)c(O)cc1O (stereo not given)
inactive: 786-0 19 µM | HCC 2998 18.7 µM | SF-268 13.2 µM | K562 3.08 µM | HT-29 16.6 µM | SNB-75 19.1 µM | UACC-62 15.7 µM | SNB-19 19.3 µM | SK-MEL-28 22.4 µM | UACC-257 12.8 µM | U-251 16 µM | MCF7 11.8 µM | M14 13.4 µM | HOP-62 17.8 µM | SF-539 16.5 µM | SW-620 22 µM | ACHN 16.7 µM | OVCAR-3 14.3 µM | HL-60 8.63 µM

CCCCCCCCCCCCOC(=S)NCCCC
inactive: 786-0 24.6 µM | HCC 2998 18 µM | SF-268 26.8 µM | K562 19.3 µM | HT-29 19 µM | SNB-75 30.3 µM | UACC-62 16.7 µM | SNB-19 37.4 µM | SK-MEL-28 38 µM | UACC-257 16.5 µM | U-251 20.2 µM | M14 27.8 µM | HOP-62 35.6 µM | SF-539 21.3 µM | SW-620 17.7 µM | ACHN 22.4 µM | DLD-1 29.4 µM | HL-60 18.5 µM

CCOC(=O)[C@@]1(C)C=C2O[C@@H]3OC4(CCCCC4)O[C@@H]3C2=C2C(O)=CC=C(O)[C@]21C(=O)OC
inactive: 786-0 > 68.1 µM | HCC 2998 > 68.1 µM | SF-268 > 68.1 µM | K562 51.1 µM | HT-29 > 68.1 µM | SNB-75 > 68.1 µM | UACC-62 > 68.1 µM | SNB-19 > 68.1 µM | SK-MEL-28 > 68.1 µM | UACC-257 > 68.1 µM | U-251 > 68.1 µM | M14 20.7 µM | HOP-62 > 68.1 µM | SW-620 > 68.1 µM | ACHN > 68.1 µM | OVCAR-3 > 68.1 µM | DLD-1 > 68.1 µM | HL-60 33 µM

C=CCNC1=C2C[C@@H](C)C[C@@H](OC)[C@H](OC(=O)CCN(C)C)[C@H](C)/C=C(\C)[C@@H](OC(N)=O)[C@H](OC)/C=C\C=C(/C)C(=O)NC(=CC1=O)C2=O
inactive: 786-0 1.43 µM | SF-268 1.35 µM | SNB-19 1.17 µM
active: HCC 2998 0.0641 µM | K562 0.156 µM | HT-29 < 0.01 µM | SNB-75 0.1 µM | UACC-62 0.0545 µM | SK-MEL-28 0.171 µM | UACC-257 0.0914 µM | U-251 0.203 µM | MCF7 0.0295 µM | M14 0.0622 µM | HOP-62 0.044 µM | SF-539 0.0562 µM | SW-620 0.0578 µM | ACHN 0.875 µM | OVCAR-3 0.205 µM | HL-60 0.362 µM

O=C(NC1=C(Cl)C(=O)c2ccccc2C1=O)c1ccc(F)cc1
active: K562 0.91 µM | UACC-62 0.279 µM | SW-620 0.776 µM | ACHN 0.938 µM | HL-60 0.341 µM
inactive: 786-0 10.8 µM | HCC 2998 3.48 µM | SF-268 7.57 µM | HT-29 3.49 µM | SNB-75 5.83 µM | SNB-19 5.18 µM | SK-MEL-28 4.86 µM | UACC-257 1.98 µM | U-251 1.85 µM | MCF7 3.62 µM | M14 2.6 µM | HOP-62 13.9 µM | SF-539 4.4 µM | OVCAR-3 2.53 µM

Cc1ccc(-c2n[nH]c(=O)[nH]2)cc1[N+](=O)[O-]
inactive: 786-0 > 100 µM | HCC 2998 63.4 µM | SF-268 > 100 µM | K562 > 100 µM | HT-29 > 100 µM | SNB-75 61 µM | UACC-62 > 100 µM | SNB-19 > 100 µM | SK-MEL-28 > 100 µM | UACC-257 > 100 µM | U-251 > 100 µM | MCF7 > 100 µM | M14 > 100 µM | HOP-62 > 100 µM | SF-539 > 100 µM | SW-620 > 100 µM | ACHN > 100 µM | OVCAR-3 > 100 µM | HL-60 > 100 µM

COC(=O)C(CCC1(C)OCCO1)=[N+]=[N-]
inactive: 786-0 > 100 µM | HCC 2998 > 100 µM | SF-268 > 100 µM | K562 > 100 µM | HT-29 > 100 µM | SNB-75 > 100 µM | SNB-19 > 100 µM | SK-MEL-28 > 100 µM | UACC-257 > 100 µM | U-251 > 100 µM | M14 > 100 µM | HOP-62 > 100 µM | SF-539 > 100 µM | SW-620 > 100 µM | ACHN > 100 µM | OVCAR-3 > 100 µM | DLD-1 > 100 µM | HL-60 > 100 µM

CN1CCN(CCCNN)CC1
inactive: 786-0 > 100 µM | HCC 2998 > 100 µM | SF-268 > 100 µM | K562 1.87 µM | HT-29 > 100 µM | SNB-75 > 100 µM | UACC-62 > 100 µM | SNB-19 > 100 µM | SK-MEL-28 > 100 µM | UACC-257 > 100 µM | U-251 > 100 µM | MCF7 > 100 µM | M14 > 100 µM | HOP-62 > 100 µM | SF-539 > 100 µM | SW-620 > 100 µM | ACHN > 100 µM | OVCAR-3 > 100 µM | HL-60 7.33 µM

C=C(C)[C@@]1(O)O[C@H]2C[C@@]3(C)OC(=CC3=O)/C(C)=C\[C@@H]3OC(=O)[C@@]1(C)[C@H]32
inactive: 786-0 11.7 µM | HCC 2998 15.3 µM | SF-268 23 µM | K562 4.67 µM | HT-29 19.5 µM | SNB-75 23.8 µM | UACC-62 14.1 µM | SNB-19 > 58.7 µM | SK-MEL-28 12.6 µM | UACC-257 23.2 µM | U-251 16.1 µM | MCF7 11.6 µM | M14 14.9 µM | HOP-62 21.6 µM | SF-539 23.9 µM | SW-620 4.9 µM | ACHN 18.2 µM | OVCAR-3 15.5 µM | HL-60 14.2 µM

CC(=O)[C@H]1[C@@H](OCc2ccccc2)O[N+]([O-])=C(C)[C@@H]1c1ccccc1
inactive: 786-0 17.6 µM | HCC 2998 > 100 µM | SF-268 37.2 µM | K562 14.5 µM | HT-29 19.6 µM | SNB-75 > 100 µM | UACC-62 49.2 µM | SNB-19 97.3 µM | SK-MEL-28 27.2 µM | UACC-257 34.7 µM | U-251 44.5 µM | MCF7 30.8 µM | M14 36.1 µM | HOP-62 > 100 µM | SF-539 18.6 µM | SW-620 17.4 µM | ACHN 26.4 µM | OVCAR-3 24.7 µM | HL-60 19 µM

c1cc(C2O[C@H]3CCCN3[C@@H]2c2ccncc2)ccn1 (stereo not given in full)
inactive: 786-0 > 100 µM | SF-268 > 100 µM | K562 > 100 µM | HT-29 > 100 µM | SNB-75 > 100 µM | UACC-62 > 100 µM | SNB-19 > 100 µM | SK-MEL-28 > 100 µM | UACC-257 > 100 µM | U-251 > 100 µM | M14 > 100 µM | HOP-62 > 100 µM | SF-539 > 100 µM | SW-620 > 100 µM | ACHN > 100 µM | OVCAR-3 > 100 µM | DLD-1 > 100 µM

COc1ccc(C(O)c2cc(OC)c(OC)c(OC)c2)cc1 (stereo not given)
inactive: 786-0 46.8 µM | SF-268 39 µM | K562 3.78 µM | HT-29 7.16 µM | UACC-62 8.91 µM | SNB-19 42.4 µM | SK-MEL-28 72.1 µM | UACC-257 38.2 µM | U-251 34 µM | M14 13 µM | HOP-62 26.3 µM | SF-539 21.3 µM | SW-620 6.85 µM | ACHN 69.8 µM | OVCAR-3 18.5 µM | DLD-1 38.2 µM | HL-60 6.11 µM
